# Results: ChEMBL document CHEMBL1149445, “Isolation, synthesis, and anti-tumor activities of a novel class of podocarpic diterpenes” (Bioorg Med Chem Lett, 2006)
# Legend:
# Assay type in all cases: functional, cell-based
# CNE = assay: Antitumor activity against human nasopharyngeal carcinoma CNE cell line
# A549 = assay: Antitumor activity against human lung adenocarcinoma A549 cell line
# HeLa = assay: Antitumor activity against human cervical carcinoma HeLa cell line
# MCF7 = assay: Antitumor activity against human breast adenocarcinoma MCF7 cell line
# [1] = Homo sapiens, CNE, read-out: IC50
# [2] = Homo sapiens, A549, read-out: IC50
# [3] = Homo sapiens, HeLa, read-out: IC50
# [4] = Homo sapiens, MCF7, read-out: IC50
Compound,IC50 (CNE; [1]) [µg/mL],IC50 (A549; [2]) [µg/mL],IC50 (HeLa; [3]) [µg/mL],IC50 (MCF7; [4]) [µg/mL],IC50 (CNE; cne) [µg/mL],IC50 (A549; a549) [µg/mL],IC50 (HeLa; hela) [µg/mL],IC50 (MCF7; mcf7) [µg/mL]
CC1(C)CCC[C@]2(C)c3cc(O)c(O)cc3C(=O)C[C@@H]12,22.1,> 50,27.7,> 50,,,,
COc1cc2c(cc1OC)[C@@]1(C)CCCC(C)(C)[C@H]1CC2,4.5,9.6,13.2,10.9,,,,
COc1cc2c(cc1OC)[C@@]1(C)CCCC(C)(C)[C@@H]1CC2=O,> 50,> 50,25.7,> 50,,,,
COc1cc2c(cc1OC)[C@@]1(C)CCCC(C)(C)[C@H]1CC2=O,3.1,26.3,12.7,7.8,,,,
CC1(C)CCC[C@]2(C)c3cc(O)c(O)cc3C(=O)C(=O)[C@H]12,9.1,25.8,18,24.8,,,,
CC1(C)CCC[C@]2(C)c3cc(O)c(O)cc3CC[C@H]12,3.6,5.7,10.9,9.6,,,,
COc1cc2c(cc1OC)[C@@]1(C)CCCC(C)(C)[C@@H]1CC2,25.1,41.7,41.5,39.5,,,,
CC1(C)CCC[C@]2(C)c3cc(OCc4ccccc4F)c(O)cc3CC[C@H]12,7.2,13.7,15.3,12.4,,,,
CC1(C)CCC[C@]2(C)c3cc(O)c(OCc4ccc(Cl)cc4)cc3CC[C@@H]12,> 50,> 50,> 50,> 50,,,,
CC1(C)CCC[C@]2(C)c3cc(O)c(OCc4cccc([N+](=O)[O-])c4)cc3CC[C@H]12,> 50,> 50,18.6,> 50,,,,
CC1(C)CCC[C@]2(C)c3cc(OCc4cccc([N+](=O)[O-])c4)c(O)cc3CC[C@@H]12,> 50,> 50,> 50,> 50,,,,
CC1(C)CCC[C@]2(C)c3cc(O)c(OCc4ccc(Cl)cc4)cc3CC[C@H]12,> 50,> 50,> 50,> 50,,,,
CC1(C)CCC[C@]2(C)c3cc(O)c(OCc4cccc([N+](=O)[O-])c4)cc3CC[C@@H]12,> 50,> 50,> 50,> 50,,,,
CC1(C)CCC[C@]2(C)c3cc(OCc4ccc(Cl)cc4)c(O)cc3CC[C@@H]12,> 50,> 50,> 50,> 50,,,,
CC1(C)CCC[C@]2(C)c3cc(OCc4ccccc4F)c(O)cc3CC[C@@H]12,> 50,> 50,> 50,> 50,,,,
CC1(C)CCC[C@]2(C)c3cc(O)c(O)cc3CC[C@@H]12 (stereo in doubt),,,,,12.1,36.1,42,36.5
CC1(C)CCC[C@]2(C)c3cc(O)c(O)cc3C(=O)C[C@H]12,13.5,> 50,17.6,36.2,,,,
CC1(C)CCC[C@]2(C)c3cc(OCc4ccc(Cl)cc4)c(O)cc3CC[C@H]12,27.2,46.9,42.2,> 50,,,,
COc1cc2c(cc1OC)[C@@]1(C)CCCC(C)(C)[C@H]1C(=O)C2=O,5.6,33.8,16.1,16.5,,,,
CISPLATIN,,,,,2.34,3.58,5.89,6.53
CC1(C)CCC[C@]2(C)c3cc(OCc4cccc([N+](=O)[O-])c4)c(O)cc3CC[C@H]12,32.9,36.4,> 50,> 50,,,,
CC1(C)CCC[C@]2(C)c3cc(O)c(OCc4ccccc4F)cc3CC[C@H]12,17.8,35,13.4,42.9,,,,
CC1(C)CCC[C@]2(C)c3cc(O)c(OCc4ccccc4F)cc3CC[C@@H]12,> 50,> 50,> 50,> 50,,,,
CC1(C)CCC[C@]2(C)c3cc(O)c(O)cc3CC[C@@H]12 (stereo in doubt; 1),,19.6,24.3,41.2,25.1,,,
